From US9663523B2, “BET protein-inhibiting 5-aryltriazoleazepines” (BAYER PHARMA AKTIENGESELLSCHAFT, priority 2012, dated 2017)

Columns and labels:
[1] = molecular target: BRD4(1) (amino acids 44-168) (Homo sapiens (Human), UniProt O60885); assay: BRD4 binding strength, TR-FRET (HTRF) assay of BRD4(1) / acetylated histone H4 peptide interaction; details: inhibition of BRD4(1)/Ac-H4 peptide interaction
Description: To assess the BRD4 binding strength of the compounds according to the invention, the ability thereof to inhibit the interaction between BRD4 and acetylated histone H4 in a dose-dependent manner was quantified. For this purpose, a time-resolved fluorescence resonance energy transfer (TR-FRET) assay was used, which measures the binding between N-terminally His6-tagged BRD4(1) (amino acids 44-168) and a synthetic acetylated histone H4 (Ac-H4) peptide with sequence […]-biotin. The recombinant BRD4 protein produced in-house according to Filippakopoulos et al., Cell, 2012, 149:214-231 was expressed in E. coli and purified by means of (Ni-NTA) affinity and (Sephadex G-75) size exclusion chromatography. The Ac-H4 peptide can be purchased, for example, from Biosyntan (Berlin, Germany). […] For this purpose, 100-fold concentrated solutions in DMSO were prepared by serial dilutions (1:3.4) of a 2 mM stock solution into a clear, 384-well microtitre plate (Greiner Bio-One, Frickenhausen, Germany). From this, 50 nl were transferred into a black test plate (Greiner Bio-One, Frickenhausen, Germany). […] This was followed by a 10-minute incubation step at 22° C. for the pre-equilibration of putative complexes between BRD4 and the substances. Subsequently, 3 μl of a solution of 1.67 times the concentration (in assay buffer) consisting of Ac-H4 peptide (83.5 nM) and TR-FRET detection reagents [16.7 nM anti-6His-XL665 and 3.34 nM streptavidin cryptate (both from Cisbio Bioassays, Codolet, France), and 668 mM potassium fluoride (KF)] were added. The mixture was then incubated in the dark at 22° C. for one hour and then at 4° C. overnight. The formation of BRD4/Ac-H4 complexes was determined by the measurement of the resonance energy transfer from the streptavidin-Eu cryptate to the anti-6His-XL665 antibody present in the reaction. […] The ratio of the emissions at 665 nm and at 622 nm was taken as an indicator of the amount of BRD4/Ac-H4 complexes formed.

MOLM-13 cells = assay: Cell proliferation (alamarBlue), MOLM-13; assay type: cell-based; details: Homo sapiens, acute myeloid leukaemia cell line, 96 hours incubation
Description: (§1) The ability of the compounds according to the invention to inhibit the proliferation of various cell lines was determined.
(§2) Cell viability was determined by means of the alamarBlue® reagent (Invitrogen). The cells were sown at different densities (MOLM-13, LAPC-4, MOLP-8 and MDA-MB-231: 4000 cells/well; B16F10: 400 cells/well) in 100 μl of growth medium on 96-well microtitre plates. After overnight incubation at 37° C., the fluorescence values (CI values) were determined. The plates were then treated with various substance dilutions and incubated at 37° C. for 96 hours (MOLM-13, MDA-MB-231 and B16F10 cells), 120 hours (MOLP-8 cells) or 168 hours (LAPC-4 cells). Subsequently, the fluorescence values were determined (CO values). For the data analysis, the CI values were subtracted from the CO values and the results were compared between cells which had been treated with various dilutions of the substance or only with buffer solution.
(§3) The compounds according to the invention were tested in the cell lines in Table 2, which represent the indications specified by way of example:
(§4) The indications corresponding to the different cell lines can be found in Table 2.

LAPC-4 cells = assay: Cell proliferation (alamarBlue), LAPC-4; assay type: cell-based; details: Homo sapiens, LAPC4; prostate carcinoma (androgen receptor-positive) cell line, 168 hours incubation
Description: as §1
as §2, with “values).” for “values). For the data analysis, the CI values were subtracted from the CO values and the results were compared between cells which had been treated with various dilutions of the substance or only with buffer solution.”
as §3, §4

B16F10 cells = assay: Cell proliferation (alamarBlue), B16F10; assay type: cell-based; details: Mus musculus, B16-F10; melanoma cell line, 96 hours incubation
Description: as §1, §2, §3, §4

MOLP-8 cells = assay: Cell proliferation (alamarBlue), MOLP-8; assay type: cell-based; details: Homo sapiens, multiple myeloma cell line, 120 hours incubation
Description: as §1
as §2, with “values).” for “values). For the data analysis, the CI values were subtracted from the CO values and the results were compared between cells which had been treated with various dilutions of the substance or only with buffer solution.”
as §3, §4

| SMILES | IC50 [1] [nM] | IC50 (MOLM-13 cells) [nM] | IC50 (B16F10 cells) [nM] | IC50 (LAPC-4 cells) [nM] | IC50 (MOLP-8 cells) [nM] |
| --- | --- | --- | --- | --- | --- |
| CCOC(=O)CC1C=C(c2ccc(Cl)cc2)c2ccccc2-n2c(C)nnc21 (stereo in doubt) [Example 2, ethyl (−)-(4R)-[6-(4-chlorophenyl)-1-methyl-4H-[1,2,4]triazolo[4,3-a][1]benzazepin-4-yl]acetate] | 30 | 120 | 100 | 80 |  |
| Cc1nnc2n1-c1ccccc1C(c1ccc(Cl)cc1)=CC2CC(=O)N1C2CCC1CC2 (stereo in doubt) [Example 6, (−)-1 (7-azabicyclo[2.2.1]hept-7-yl)-2-[(4R)-6-(4-chlorophenyl)-1-methyl-4H-[1,2,4]triazolo[4,3-a][1]benzazepin-4-yl]ethanone] | 600 | 670 | 1020 | 1060 |  |
| Cc1nnc2n1-c1ccccc1C(c1ccc(Cl)cc1)=CC2CC(=O)OC(C)(C)C (stereo in doubt) [Example 9, tert-butyl (−)-[(4R)-6-(4-chlorophenyl)-1-methyl-4H-[1,2,4]triazolo[4,3-a][1]benzazepin-4-yl]acetate] |  | 430 | 430 | 310 |  |
| Cc1nnc2n1-c1ccccc1C(c1cccc(Cl)c1)=CC2CC(=O)N1CC2(COC2)C1 (stereo in doubt) [Example 11, (−)-2-[(4R)-6-(3-chlorophenyl)-1-methyl-4H-[1,2,4]triazolo[4,3-a][1]benzazepin-4-yl]-1-(2-oxa-6-azaspiro[3.3]hept-6-yl)ethanone] | 300 | 4190 | 9470 | 7890 |  |
| CCOC(=O)CC1C=C(c2ccc(Cl)cc2)c2ccccc2-n2c(C)nnc21 (centres unmarked) [Example 1, ethyl [6-(4-chlorophenyl)-1-methyl-4H-[1,2,4]triazolo[4,3-a][1]benzazepin-4-yl]acetate] | 180 | 330 | 300 | 260 |  |
| Cc1nnc2n1-c1ccccc1C(c1ccc(Cl)cc1)=CC2CC(=O)N1C2CCC1CC2 (centres unmarked) [Example 5, 1-(7-azabicyclo[2.2.1]hept-7-yl)-2-[6-(4-chlorophenyl)-1-methyl-4H-[1,2,4]triazolo[4,3-a][1]benzazepin-4-yl]ethanone] | 1400 | 1120 | 870 | 620 |  |
| CCOC(=O)CC1C=C(c2cccc(Cl)c2)c2ccccc2-n2c(C)nnc21 (centres unmarked) [Example 7, ethyl [6-(3-chlorophenyl)-1-methyl-4H-[1,2,4]triazolo[4,3-a][1]benzazepin-4-yl]acetate] | 230 | 720 | 780 | 750 |  |
| Cc1nnc(CC2C=C(c3ccc(Cl)cc3)c3ccccc3-n3c(C)nnc32)s1 (centres unmarked) [Example 41, 6-(4-chlorophenyl)-1-methyl-4-[(5-methyl-1,3,4-thiadiazol-2-yl)methyl]-4H-[1,2,4]triazolo[4,3-a][1]benzazepine] | 100 | 720 |  |  | 410 |
| Cc1nnc2n1-c1ccccc1C(c1ccc(Cl)cc1)=CC2Cc1nnc(C2CC2)o1 (centres unmarked) [Example 43, 6-(4-chlorophenyl)-4-[(5-cyclopropyl-1,3,4-oxadiazol-2-yl)methyl]-1-methyl-4H-[1,2,4]triazolo[4,3-a][1]benzazepine] | 130 | 370 |  |  | 210 |
| Cc1nc(CC2C=C(c3ccc(Cl)cc3)c3ccccc3-n3c(C)nnc32)no1 (centres unmarked) [Example 46, 6-(4-chlorophenyl)-1-methyl-4-[(5-methyl-1,2,4-oxadiazol-3-yl)methyl]-4H-[1,2,4]triazolo[4,3-a][1]benzazepine] | 80 | 270 |  |  | 140 |
| Cc1nnc2n1-c1ccc(OC(F)(F)F)cc1C(c1ccc(Cl)cc1)=CC2CC(=O)OC(C)(C)C (centres unmarked) [Example 49, tert-butyl [6-(4-chlorophenyl)-1-methyl-8-(trifluoromethoxy)-4H-[1,2,4]triazolo[4,3-a][1]benzazepin-4-yl]acetate] |  | 1690 | 2200 |  | 1890 |

More lines, main results first:

| IC50 [1] [nM] | IC50 (MOLM-13 cells) [nM] | IC50 (B16F10 cells) [nM] | SMILES | IC50 (LAPC-4 cells) [nM] | IC50 (MOLP-8 cells) [nM] |
| --- | --- | --- | --- | --- | --- |
| 40 | 170 |  | CC(=O)NNC(=O)CC1C=C(c2ccc(Cl)cc2)c2ccccc2-n2c(C)nnc21 (stereo in doubt) [Example 40, N′-acetyl-2-[(4R)-6-(4-chlorophenyl)-1-methyl-4H-[1,2,4]triazolo[4,3-a][1]benzazepin-4-yl]acetohydrazide] |  | 80 |
| 50 | 100 | 60 | Cc1nnc2n1-c1ccccc1C(c1ccc(Cl)cc1)=CC2Cc1nnc(-c2cccnc2)o1 (stereo in doubt) [Example 45, (−)-(4R)-6-(4-chlorophenyl)-1-methyl-4-{[5-(pyridin-3-yl)-1,3,4-oxadiazol-2-yl]methyl}-4H-[1,2,4]triazolo[4,3-a][1]benzazepine] |  |  |
| 220 | 630 | 740 | Cc1nnc2n1-c1ccccc1C(c1ccc(Cl)cc1)=CC2CC(=O)N1CC2(COC2)C1 (centres unmarked) [Example 3, 2-[6-(4-chlorophenyl)-1-methyl-4H-[1,2,4]triazolo[4,3-a][1]benzazepin-4-yl]-1-(2-oxa-6-azaspiro[3.3]hept-6-yl)ethanone] | 470 |  |
| 90 | 360 |  | Cc1noc(CC2C=C(c3ccc(Cl)cc3)c3ccccc3-n3c(C)nnc32)n1 (centres unmarked) [Example 34, 6-(4-chlorophenyl)-1-methyl-4-[(3-methyl-1,2,4-oxadiazol-5-yl)methyl]-4H-[1,2,4]triazolo[4,3-a][1]benzazepine] |  |  |
| 40 | 320 |  | Cc1nnc(CC2C=C(c3ccc(Cl)cc3)c3ccccc3-n3c(C)nnc32)o1 (centres unmarked) [Example 39, 6-(4-chlorophenyl)-1-methyl-4-[(5-methyl-1,3,4-oxadiazol-2-yl)methyl]-4H-[1,2,4]triazolo[4,3-a][1]benzazepine] |  |  |
| 90 | 420 |  | Cc1nnc2n1-c1ccccc1C(c1ccc(Cl)cc1)=CC2Cc1nnc(-c2cccnc2)o1 (centres unmarked) [Example 44, 6-(4-chlorophenyl)-1-methyl-4-{[5-(pyridin-3-yl)-1,3,4-oxadiazol-2-yl]methyl}-4H-[1,2,4]triazolo[4,3-a][1]benzazepine] |  | 220 |
| 50 | 150 |  | COc1ccc2c(c1)C(c1ccc(Cl)cc1)=CC(Cc1nnc(C)o1)c1nnc(C)n1-2 (centres unmarked) [Example 47, 6-(4-chlorophenyl)-8-methoxy-1-methyl-4-[(5-methyl-1,3,4-oxadiazol-2-yl)methyl]-4H-[1,2,4]triazolo[4,3-a][1]benzazepine] |  | 90 |
| 340 | 1380 |  | Cc1nnc(CC2C=C(c3ccc(Cl)cc3)c3cc(-c4c(C)noc4C)ccc3-n3c(C)nnc32)o1 (centres unmarked) [Example 48, 6-(4-chlorophenyl)-8-(3,5-dimethyl-1,2-oxazol-4-yl)-1-methyl-4-[(5-methyl-1,3,4-oxadiazol-2-yl)methyl]-4H-[1,2,4]triazolo[4,3-a][1]benzazepine] |  | 1620 |
|  | 390 | 580 | Cc1nnc2n1-c1ccc(OC(F)(F)F)cc1C(c1ccc(Cl)cc1)=C[C@H]2CC(=O)N1CC2(COC2)C1 [Example 51] |  | 360 |
